# Assay results reported in PMC4409382, “Structural Analysis of the 14-3-3ζ/Chibby Interaction Involved in Wnt/β-Catenin Signaling” (PLoS ONE, 2015).
# Square brackets hold non-standard residues; d marks the D form. Ends that are not written are not given here. Peptide text beside a SMILES is read from it. pS = N[C@@H](COP(=O)(O)O)C(=O)O
# Assays:
# [1] = target: T1, 14-3-3ζΔC12 (Homo sapiens, UniProt P63104); experiment: ITC of Cby peptides titrated into 14-3-3ζΔC12; assay type: binding; conditions: 14-3-3ζΔC12 in ITC cell; for n (binding stoichiometry of monomeric 14-3-3 and Cby peptide): 25°C, pH 6.8
# T1 construct: The 14-3-3ζΔC12, where the 12 C-terminal residues were deleted, was then generated from the full-length construct; His tag (TEV-cleavable) (N, cleaved yes); made in house; host or cells: Escherichia coli BL21 (DE3) pLysS
# T1 sequence (P63104 1-233 limits assumed): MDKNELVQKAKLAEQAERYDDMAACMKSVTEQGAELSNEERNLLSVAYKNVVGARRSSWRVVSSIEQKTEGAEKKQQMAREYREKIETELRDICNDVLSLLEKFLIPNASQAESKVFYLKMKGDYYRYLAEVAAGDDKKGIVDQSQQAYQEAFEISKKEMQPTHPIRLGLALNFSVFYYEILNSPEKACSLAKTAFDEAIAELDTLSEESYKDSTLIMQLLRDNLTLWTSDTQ
# From the text: (§1) The human14-3-3ζ ORF purchased from GeneCopoeia was transferred into Gateway pDEST17 vector (Invitrogen). The 14-3-3ζΔC12, where the 12 C-terminal residues were deleted, was then generated from the full-length construct using QuikChange II Site-Directed Mutagenesis Kit (Strategene). Both full-length 14-3-3ζ and 14-3-3ζΔC12 were expressed as N-terminally His-tagged protein in Escherichia coli (E. coli) BL21 (DE3) pLysS in M9 medium. For unlabeled protein, protein expression was induced at an O.D.600 of 0.9 by adding 0.75 mM IPTG at 18°C for 24 h. The ^15N, ^13C, ^2H labeled 14-3-3ζΔC12 was produced by growing E. coli in deuterated M9 medium. Cells adapted to 70% D2O were used to inoculate a 1 L culture of M9 prepared in 100% D2O. Cells were grown at 37°C and overexpression was induced at an O.D.600 of 0.6 with 0.75 mM IPTG. After a 60-h induction at 18°C, the cells were harvested. All 14-3-3ζ constructs used in this study were purified from the crude lysate by affinity chromatography using Ni Sepharose Fast Flow beads (Amersham Biosciences). The tag was then cleaved by overnight incubation with His-tagged tobacco etch virus (TEV) protease at 25°C. The cleaved 14-3-3ζ, which retains an N-terminal glycine, was purified by passing the mixture through Ni Sepharose Fast Flow beads. The final yields for the 14-3-3ζ proteins were ~50 mg per L of M9 media (including deuterated media).
# (§2) The Cby peptides used in this study were purchased from GenScript USA Inc. and the TUFTS University Core Facility. From GenScript USA Inc.: Cby 13-mer (NH2-^12KTPPRKSASLSNL^24-COOH), Cby S20D 13-mer (NH2-^12KTPPRKSADLSNL^24-COOH), Cby S20E 13-mer (NH2-^12KTPPRKSAELSNL^24-COOH), pCby 13-mer (NH2-^12KTPPRKSApSLSNL^24-COOH) and pCby 18-mer ((NH2-^12KTPPRKSApSLSNLHSLDR^29-COOH). From TUFTS: pCby 7-mer (Ac-^16RKSApSLS^22-NH2), pCby 11-mer (NH2-^12KTPPRKSApSLS^22-NH2), pCby S22P 7-mer (Ac-^16RKSApSLP^22-NH2), pCby S22P 13-mer (NH2-^12KTPPRKSApSLPNL^24-COOH) and pCby S22P 18-mer ([…]). Peptides were dissolved and dialyzed in 50 mM sodium phosphate, 100 mM NaCl at pH 6.8 for ITC and NMR experiments.
# (§3) ITC experiments were performed on a VP-ITC instrument (MicroCal) at 25°C. The protein and peptide samples were dialyzed into a buffer containing 50 mM sodium phosphate, 100 mM NaCl, 1 mM DTT at pH 6.8 and degassed before the experiments. In a typical experiment, 5 μL aliquots of ~1–2 mM peptide were titrated stepwise into the 1.4 mL sample cell containing ~100–200 μM 14-3-3ζ. The association constant (Ka), molar binding stoichiometry (n) and the binding enthalpy (ΔH), entropy (ΔS) and Gibbs free energy (ΔG) were determined by fitting the binding isotherm to a one-site model with MicroCal Origin7 software. All ITC experiments were performed in duplicate. A duplicate set of thermodynamic derived binding parameters are found in S1 Table. Peptide and protein concentrations were determined from amino acid analysis (Amino Acid Analysis Facility, SickKids, Toronto, ON).
# [2] = target: T2, 14-3-3ζ K49A (Homo sapiens, UniProt P63104, K49A); experiment: ITC of Cby peptides titrated into 14-3-3ζ K49A; assay type: binding; conditions: for n (binding stoichiometry of monomeric 14-3-3 and Cby peptide): 25°C, pH 6.8
# T2 construct: His tag (TEV-cleavable) (N, cleaved yes); made in house
# T2 sequence (P63104 1-245 K49A): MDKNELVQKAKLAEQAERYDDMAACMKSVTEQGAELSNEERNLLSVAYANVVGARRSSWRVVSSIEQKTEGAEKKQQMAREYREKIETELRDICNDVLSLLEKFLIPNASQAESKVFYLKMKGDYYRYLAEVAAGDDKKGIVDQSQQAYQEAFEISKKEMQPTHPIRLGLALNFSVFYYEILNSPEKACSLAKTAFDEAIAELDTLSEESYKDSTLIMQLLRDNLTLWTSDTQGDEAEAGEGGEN
# From the text: In numerous crystal structures of 14-3-3 proteins in complex with phosphorylated S/T peptides, the conserved K49 (numbering refers to the ζ isoform) side-chain is observed forming a hydrogen bond with the phosphate group on pS/pT (illustrated in S3 Fig with an elucidated 14-3-3ζ/Raf1 structure). With Cby’s S22 side-chain juxtaposed between 14-3-3ζ residues K49 and R56, the K49 side-chain is sterically hindered from contacting pS20. As such, we speculated that the increases in binding affinity to 14-3-3ζ observed for the S22P mutant peptides might be the result of the favorable contacts between K49 and pS20 facilitated by the proline-induced conformational changes. To test this, a K49A mutation was introduced into 14-3-3ζ and ITC titrations were performed with 18-mer WT and S22P Cby peptides.
# as §2, §3
# [3] = target: T3, 14-3-3ζ (Homo sapiens, UniProt P63104); experiment: ITC of Cby peptides titrated into 14-3-3ζ; assay type: binding; conditions: for n (binding stoichiometry of monomeric 14-3-3 and Cby peptide): 25°C
# T3 construct: Both full-length 14-3-3ζ and 14-3-3ζΔC12 were expressed as N-terminally His-tagged protein; His tag (TEV-cleavable) (N, cleaved yes); made in house; host or cells: Escherichia coli BL21 (DE3) pLysS
# T3 sequence (P63104 1-245): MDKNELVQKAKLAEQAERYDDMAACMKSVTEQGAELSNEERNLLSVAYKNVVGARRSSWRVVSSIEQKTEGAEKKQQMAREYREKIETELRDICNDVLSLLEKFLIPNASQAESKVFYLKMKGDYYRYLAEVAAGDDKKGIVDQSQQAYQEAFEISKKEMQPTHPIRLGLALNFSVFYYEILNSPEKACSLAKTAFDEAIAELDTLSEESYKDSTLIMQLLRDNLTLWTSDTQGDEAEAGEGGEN
# From the text: as §1, §2, §3
# [4] = target: T4, 14-3-3ζ (human, UniProt P63104 1-245); experiment: ITC; duplicate set of titrations; 5 uL aliquots of ~1-2 mM peptide titrated into the 1.4 mL cell with ~100-200 uM 14-3-3ζ; 25 °C; 50 mM sodium phosphate, 100 mM NaCl, 1 mM DTT, pH 6.8; one-site model; n per 14-3-3 monomer; conditions: both partners purified
# T4 construct: N-terminal glycine retained after TEV cleavage of the His tag; 14-3-3 zeta, human, ORF purchased from GeneCopoeia, full-length construct; Dimer (~56 kDa); the stoichiometry n counts on the 14-3-3 monomer; also called full-length 14-3-3ζ; source: E. coli BL21 (DE3) pLysS, purified (Ni Sepharose, TEV cleavage, second Ni Sepharose pass); not shown: His tag, N-terminal, cleaved
# T4 sequence: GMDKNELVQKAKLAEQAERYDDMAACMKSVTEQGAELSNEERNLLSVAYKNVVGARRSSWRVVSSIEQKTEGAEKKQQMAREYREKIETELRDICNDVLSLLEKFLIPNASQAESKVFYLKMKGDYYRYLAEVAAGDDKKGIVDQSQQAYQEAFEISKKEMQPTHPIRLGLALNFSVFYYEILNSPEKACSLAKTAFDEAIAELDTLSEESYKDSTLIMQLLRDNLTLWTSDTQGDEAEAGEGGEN
# [5] = 298.15 K, Table 1 set of duplicate experiments
# [6] = 298.15 K, duplicate set (S1 Table)
# [7] = 14-3-3ζ K49A in ITC cell, 298.15 K, Table 1 set of duplicate experiments
# [8] = 14-3-3ζ K49A in ITC cell, 298.15 K, duplicate set (S1 Table)
# [9] = 298.15 K, pH 6.8, Table 1 set of duplicate experiments
molecule,measurement,setting,value
CC(C)C[C@H](NC(=O)[C@H](COP(=O)(O)O)NC(=O)[C@H](C)NC(=O)[C@H](CO)NC(=O)[C@H](CCCCN)NC(=O)[C@H](CCCNC(=N)N)NC(=O)[C@@H]1CCCN1C(=O)[C@@H]1CCCN1C(=O)[C@@H](NC(=O)[C@@H](N)CCCCN)[C@@H](C)O)C(=O)N[C@@H](CO)C(=O)N[C@@H](CC(N)=O)C(=O)N[C@@H](CC(C)C)C(=O)N[C@@H](Cc1c[nH]cn1)C(=O)N[C@@H](CO)C(=O)N[C@@H](CC(C)C)C(=O)N[C@@H](CC(=O)O)C(=O)N[C@@H](CCCNC(=N)N)C(=O)O [Cby 18-mer] (H-KTPPRKSA[pS]LSNLHSLDR-OH),n (binding stoichiometry of monomeric 14-3-3 and Cby peptide),[1]; Table 1 set of duplicate experiments,1.04
same,n (binding stoichiometry of monomeric 14-3-3 and Cby peptide),[1]; duplicate set (S1 Table),1.02
same,TΔS,[1]; [5],3.70 kcal/mol
same,ΔG,[1]; [5],-7.05 ± 0.03 kcal/mol
same,ΔH,[1]; [5],-3.35 ± 0.06 kcal/mol
same,T∆S,[1]; [6],3.77 kcal/mol
same,∆G,[1]; [6],-6.92 ± 0.03 kcal/mol
same,∆H,[1]; [6],-3.15 ± 0.04 kcal/mol
same,n (binding stoichiometry of monomeric 14-3-3 and Cby peptide),"[2]; 14-3-3ζ K49A in ITC cell, Table 1 set of duplicate experiments",1.01
same,n (binding stoichiometry of monomeric 14-3-3 and Cby peptide),"[2]; 14-3-3ζ K49A in ITC cell, duplicate set (S1 Table)",1.07
same,TΔS,[2]; [7],3.23 kcal/mol
same,ΔG,[2]; [7],-7.39 ± 0.05 kcal/mol
same,ΔH,[2]; [7],-4.16 ± 0.05 kcal/mol
same,T∆S,[2]; [8],3.41 kcal/mol
same,∆G,[2]; [8],-7.17 ± 0.06 kcal/mol
same,∆H,[2]; [8],-3.76 ± 0.07 kcal/mol
same,"ΔΔG of binding, 14-3-3ζ K49A compared to WT 14-3-3ζ","[2]; ITC, 18-mer peptides",~ 0.1 kcal/mol
same,effect of 14-3-3ζ K49A mutation on binding affinity (fold reduction),"[2]; ITC, versus WT 14-3-3ζ",does not affect
same,"greater affinity compared to the Cby 7-mer (fold, in words)",[3],nine-fold
same,n (binding stoichiometry of monomeric 14-3-3 and Cby peptide),"[3]; 50 mM sodium phosphate, 100 mM NaCl, 1 mM DTT, pH 6.8, one-site model, Table 1 set of duplicate experiments",0.96
same,n (binding stoichiometry of monomeric 14-3-3 and Cby peptide),"[3]; pH 6.8, duplicate set (S1 Table)",0.94
same,T∆S,[3]; [6],2.91 kcal/mol
same,∆G,[3]; [6],-7.24 ± 0.04 kcal/mol
same,∆H,[3]; [6],-4.33 ± 0.06 kcal/mol
same,TΔS,[3]; [9],2.93 kcal/mol
same,ΔG,[3]; [9],-7.28 ± 0.03 kcal/mol
same,ΔH,[3]; [9],-4.35 ± 0.05 kcal/mol
"KTPPRKSA[pS]LS-NH2 (N-terminus assumed; SMILES CC(C)C[C@H](NC(=O)[C@H](COP(=O)(O)O)NC(=O)[C@H](C)NC(=O)[C@H](CO)NC(=O)[C@H](CCCCN)NC(=O)[C@H](CCCNC(=N)N)NC(=O)[C@@H]1CCCN1C(=O)[C@@H]1CCCN1C(=O)[C@@H](NC(=O)[C@@H](N)CCCCN)[C@@H](C)O)C(=O)N[C@@H](CO)C(N)=O, Chibby (Cby), human, residues 12-22; source: synthetic peptide, bought: TUFTS University Core Facility) [pCby 11-mer]",Kd,[4],17.5 µM
same,stoichiometry N,[4],0.96
"KTPPRKSA[pS]LSNAHSLDR (Chibby (Cby), human, residues 12-29 with L24A; also called Cby L24A 18-mer; source: synthetic peptide, bought (GenScript USA Inc. or TUFTS University Core Facility)) [Cby 18-mer L24A]",Kd,[4],25 µM
same,stoichiometry N,[4],1.05
"Ac-RKSA[pS]LS-NH2 (SMILES CC(=O)N[C@@H](CCCNC(=N)N)C(=O)N[C@@H](CCCCN)C(=O)N[C@@H](CO)C(=O)N[C@@H](C)C(=O)N[C@@H](COP(=O)(O)O)C(=O)N[C@@H](CC(C)C)C(=O)N[C@@H](CO)C(N)=O, Chibby (Cby), human, residues 16-22; also called 16RKSA(pS)LS22; source: synthetic peptide, bought: TUFTS University Core Facility) [pCby 7-mer]",Kd,[4],47.6 µM
same,stoichiometry N,[4],0.94
"Ac-RKSA[pS]LP-NH2 (SMILES CC(=O)N[C@@H](CCCNC(=N)N)C(=O)N[C@@H](CCCCN)C(=O)N[C@@H](CO)C(=O)N[C@@H](C)C(=O)N[C@@H](COP(=O)(O)O)C(=O)N[C@@H](CC(C)C)C(=O)N1CCC[C@H]1C(N)=O, Chibby (Cby), human, residues 16-22 with S22P; also called Cby 7-mer S22P; 16RKSA(pS)LP22; source: synthetic peptide, bought: TUFTS University Core Facility) [pCby S22P 7-mer]",Kd,[4],3.2 µM
same,stoichiometry N,[4],1.02
"KTPPRKSA[pS]LPNL (Chibby (Cby), human, residues 12-24 with S22P; also called Cby 13-mer S22P; source: synthetic peptide, bought: TUFTS University Core Facility) [pCby S22P 13-mer]",Kd,[4],1.3 µM
same,stoichiometry N,[4],1.02
